Data from the supplement of paper PMC10307832.

Columns and labels:
Experiment in all cases: relative viability (nuclei count vs DMSO), 5 days (fraction); higher = more cells survive
Carboplatin + Crizotinib = compound: C1CC(C1)(C(=O)O)C(=O)O.[NH2-].[NH2-].[Pt+2] [Carboplatin] + C[C@@H](Oc1cc(-c2cnn(C3CCNCC3)c2)cnc1N)c1c(Cl)ccc(F)c1Cl [Crizotinib] (partner 1 µM)
How it was run: (§1)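 Cells from lung cancer lines were seeded into 1536-well plates and, one day later, dosed by pin tool. Treatments were either a single drug or a fixed dose of an anchor drug with five library-drug doses (not always all listed) in √10 steps. After 5 days, nuclei were stained in a one-step fixation (final 0.05% Triton X-100, 1% formaldehyde, 1 ug/ml Hoechst) and counted on 4× images, and relative viability is the treated-to-vehicle nuclei ratio, as the median of duplicate plates.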

MLN4924 + Luminespib = compound: NS(=O)(=O)OC[C@@H]1C[C@@H](n2ccc3c(N[C@H]4CCc5ccccc54)ncnc32)C[C@@H]1O [MLN4924] + CCNC(=O)c1noc(-c2cc(C(C)C)c(O)cc2O)c1-c1ccc(CN2CCOCC2)cc1 [Luminespib] (partner 0.01 µM)
How it was run: as §1

Carboplatin + Bortezomib = compound: C1CC(C1)(C(=O)O)C(=O)O.[NH2-].[NH2-].[Pt+2] [Carboplatin] + CC(C)C[C@H](NC(=O)[C@H](Cc1ccccc1)NC(=O)c1cnccn1)B(O)O [Bortezomib] (partner 0.002 µM)
How it was run: as §1

GSK126 + Decitabine = compound: CC[C@H](C)N1C=C(C2=C(C=C(C=C21)C3=CN=C(C=C3)N4CCNCC4)C(=O)NCC5=C(C=C(NC5=O)C)C)C [GSK126] + Nc1ncn([C@H]2C[C@H](O)[C@@H](CO)O2)c(=O)n1 [Decitabine] (partner 2 µM)
How it was run: as §1

Cell Line	relative viability (Carboplatin + Crizotinib; first compound 0.08 µM)	relative viability (Carboplatin + Crizotinib; first compound 0.253 µM)	relative viability (Carboplatin + Crizotinib; first compound 0.8 µM)	relative viability (Carboplatin + Crizotinib; first compound 2.53 µM)	relative viability (Carboplatin + Crizotinib; first compound 8 µM)	relative viability (MLN4924 + Luminespib; first compound 0.04 µM)	relative viability (MLN4924 + Luminespib; first compound 0.1265 µM)	relative viability (MLN4924 + Luminespib; first compound 0.4 µM)	relative viability (MLN4924 + Luminespib; first compound 1.265 µM)	relative viability (MLN4924 + Luminespib; first compound 4 µM)	relative viability (Carboplatin + Bortezomib; first compound 0.08 µM)	relative viability (Carboplatin + Bortezomib; first compound 0.253 µM)	relative viability (Carboplatin + Bortezomib; first compound 0.8 µM)	relative viability (Carboplatin + Bortezomib; first compound 2.53 µM)	relative viability (Carboplatin + Bortezomib; first compound 8 µM)	relative viability (GSK126 + Decitabine; first compound 0.08 µM)	relative viability (GSK126 + Decitabine; first compound 0.253 µM)	relative viability (GSK126 + Decitabine; first compound 0.8 µM)	relative viability (GSK126 + Decitabine; first compound 2.53 µM)	relative viability (GSK126 + Decitabine; first compound 8 µM)
LC-2-ad	0.478	0.448	0.388	0.31	0.416	0.959	0.764	0.507	0.282	0.274	1.09	1.1	1.11	0.985	0.831	0.779	0.866	0.717	0.876	0.78
NCI-H460	0.799	0.809	0.76	0.614	0.16	0.0434	0.0335	0.0273	0.0208	0.0178	1.22	1.06	0.895	0.812	0.174	0.605	0.495	0.468	0.37	0.446
NCI-H1915	0.873	0.929	0.875	0.756	0.521	0.728	0.639	0.761	0.231	0.17	0.984	1.01	0.954	0.845	0.487	0.277	0.262	0.262	0.256	0.252
NCI-H1299	0.932	0.91	0.88	0.885	0.835	–	–	–	–	–	1.07	1.01	1.07	0.982	0.902	–	–	–	–	–
HOP-62	1.04	1	0.925	0.88	0.534	0.811	0.579	0.264	0.126	0.12	0.922	0.87	0.593	0.668	0.603	0.216	0.203	0.21	0.197	0.248
SK-MES-1	0.958	1.02	1.01	0.914	0.909	0.866	0.694	0.551	0.173	0.195	–	–	–	–	–	0.41	0.463	0.418	0.391	0.431
NCI-H1563	0.975	0.901	0.834	0.853	0.854	0.556	0.539	0.53	0.435	0.407	1.02	0.886	0.937	0.876	0.77	–	–	–	–	–
NCI-H2170	1.13	1.18	1.21	1.13	0.971	0.631	0.443	0.269	0.172	0.147	–	–	–	–	–	0.517	0.467	0.44	0.467	0.444
NCI-H1648	–	–	–	–	–	–	–	–	–	–	–	–	–	–	–	0.561	0.562	0.554	0.633	0.492
LK-2	0.196	0.224	0.242	0.233	0.228	0.234	0.173	0.192	0.212	0.182	–	–	–	–	–	0.42	0.239	0.333	0.273	0.31
HCC-366	0.518	0.659	0.445	0.465	0.154	–	–	–	–	–	1.08	1.05	1.09	0.957	0.685	0.34	0.34	0.336	0.463	0.338
IA-LM	0.772	0.818	0.767	0.694	0.486	–	–	–	–	–	0.804	0.836	0.633	0.792	0.535	–	–	–	–	–
NCI-H1395	–	–	–	–	–	0.867	0.619	0.539	0.429	0.346	–	–	–	–	–	0.718	0.671	0.713	0.736	0.652
NCI-H358	0.596	0.744	0.629	0.588	0.525	0.338	0.422	0.214	0.105	0.111	–	–	–	–	–	0.231	0.2	0.207	0.229	0.218
Calu-6	0.916	0.924	0.763	0.639	0.338	–	–	–	–	–	0.927	0.974	0.925	0.823	0.496	–	–	–	–	–
NCI-H1703	0.835	0.574	0.65	0.971	0.636	–	–	–	–	–	0.494	0.503	0.347	0.425	0.34	–	–	–	–	–
EBC-1	0.186	0.202	0.175	0.182	0.2	–	–	–	–	–	0.528	0.507	0.551	0.518	0.438	–	–	–	–	–
NCI-H2228	0.469	0.517	0.41	0.593	0.428	0.178	0.181	0.195	0.19	0.113	1.05	1.35	1.07	0.905	0.467	–	–	–	–	–
HCC-78	0.367	0.325	0.315	0.308	0.304	–	–	–	–	–	0.561	0.502	0.383	0.497	0.508	0.756	0.659	0.683	0.839	0.74
CAL-12T	0.856	0.7	0.738	0.66	0.707	0.488	0.56	0.262	0.192	0.307	1.28	0.826	0.972	1.07	0.911	–	–	–	–	–
SW 900	–	–	–	–	–	0.148	0.183	0.154	0.152	0.178	–	–	–	–	–	0.444	0.356	0.459	0.487	0.462
NCI-H522	–	–	–	–	–	1.08	0.709	0.851	0.433	0.467	–	–	–	–	–	0.717	0.587	0.716	0.581	0.683
A549	0.963	0.789	0.697	0.598	0.294	–	–	–	–	–	–	–	–	–	–	0.224	0.299	0.26	0.253	0.272
